Target: T1, human beta 2 adrenoreceptor (Homo sapiens, UniProt P07550)
T1 construct: expressed in transfected cells; host or cells: frog melanophores
Experiment: frog melanophores transfected with human beta 2 adrenoreceptor, pigment dispersal (light transmittance)
Format: cell-based
Settings: melatonin-induced pigment aggregation, change in light transmittance, read-out: IC50 values at the human beta 2 adrenoreceptor (beta 2 agonist activity)
Method: The potencies of the aforementioned compounds were determined using frog melanophores transfected with the human beta 2 adrenoreceptor. The cells were incubated with melatonin to induce pigment aggregation. Pigment dispersal was induced by compounds acting on the human beta 2 adrenoreceptor. The beta 2 agonist activity of test compounds was assessed by their ability to induce a change in light transmittance across a melanophore monolayer (a consequence of pigment dispersal).

T1 sequence (P07550 whole entry): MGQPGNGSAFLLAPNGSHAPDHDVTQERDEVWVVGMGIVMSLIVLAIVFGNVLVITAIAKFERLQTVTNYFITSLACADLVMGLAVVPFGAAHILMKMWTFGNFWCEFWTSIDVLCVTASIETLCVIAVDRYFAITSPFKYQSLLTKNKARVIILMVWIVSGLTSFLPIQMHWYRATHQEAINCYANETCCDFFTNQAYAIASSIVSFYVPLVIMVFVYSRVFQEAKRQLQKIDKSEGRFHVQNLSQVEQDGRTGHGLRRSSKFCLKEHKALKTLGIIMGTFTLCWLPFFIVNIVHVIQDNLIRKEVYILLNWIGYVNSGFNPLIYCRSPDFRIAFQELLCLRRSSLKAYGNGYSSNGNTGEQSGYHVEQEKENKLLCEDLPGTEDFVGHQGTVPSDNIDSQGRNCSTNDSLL

Row | IC50 [nM] | SMILES
1 | < 1000 | NS(=O)(=O)c1cccc(CCCCOCCCCCCNC[C@H](O)c2ccc(O)c(NC=O)c2)c1 [Example 1, 3-(4-{[6-({(2R)-2-[3-(Formylamino)-4-hydroxyphenyl]-2-hydroxyethyl}amino)hexyl]oxy}butyl)benzenesulfonamide compound with (2E)-but-2-enedioic acid (2:1)]
2 | < 1000 | CC(C)(C)NS(=O)(=O)c1cccc(CCCCOCCCCCCNC[C@H](O)c2ccc(O)c(NC=O)c2)c1 [Example 2, N-(tert-Butyl)-3-(4-{[6-({(2R)-2-[3-(formylamino)-4-hydroxyphenyl]-2-hydroxyethyl}amino)hexyl]oxy}butyl)benzenesulfonamide]
